Test results from patent US4156724A, “N-acylamino-alpha-arylacetamido cephalosporins and antibacterial compositions and methods containing them” (Sumitomo Chemical Company, Limited, priority 1974, dated 1979).
Values after ≈ are worked out from the molar mass of the structure shown.

Legend:
Format in all cases: cell-based
Serratia No. 72 = assay: Minimum Inhibitory Concentration, Serratia No. 72
Description: (§1) anti-microbial activity tests were carried out on the compounds obtained in the Examples.

[1] = system: Staphylococcus aureus 209 P; assay: Minimum Inhibitory Concentration, Staphylococcus aureus 209 P; settings: Staphylococcus aureus 209 P; for MIC: read-out: Minimum Inhibitory Concentration
Description: as §1

[2] = system: Klebsiella pneumoniae 602; assay: Minimum Inhibitory Concentration, Klebsiella pneumoniae 602; settings: for MIC: Klebsiella pneumoniae, 602, Klebsiella pneumoniae 602, read-out: Minimum Inhibitory Concentration; for Minimum Inhibitory Concentration: Klebsiella pneumoniae 602
Description: as §1

[3] = system: Staphylococcus aureus FS 289; assay: Minimum Inhibitory Concentration, Staphylococcus aureus FS 289; settings: Staphylococcus aureus FS 289, strain resistant to penicillin; for MIC: FS289, read-out: Minimum Inhibitory Concentration
Description: as §1
*Staphylococcus aureus FS 289: strain resistant to penicillin

[4] = system: Enterobacter aerogeneus No. 75; assay: Minimum Inhibitory Concentration, Enterobacter aerogeneus No. 75; settings: Enterobacter aerogeneus No. 75; for MIC: read-out: Minimum Inhibitory Concentration
Description: as §1

[5] = system: Pseudomonas aeruginosa 104; assay: Minimum Inhibitory Concentration, Pseudomonas aeruginosa 104; settings: Pseudomonas aeruginosa 104; for MIC: read-out: Minimum Inhibitory Concentration
Description: as §1

Proteus vulgaris HX 19 = assay: Minimum Inhibitory Concentration, Proteus vulgaris HX 19; settings: Proteus vulgaris HX 19; for MIC: HX19, read-out: Minimum Inhibitory Concentration
Description: as §1

Escherichia coli NIHJ = assay: Minimum Inhibitory Concentration, Escherichia coli NIHJ; settings: Escherichia coli NIHJ; for MIC: read-out: Minimum Inhibitory Concentration
Description: as §1

Row | MIC (Serratia No. 72) | MIC [1] | MIC [2] | MIC [3] | MIC [4] | MIC [5] | MIC (Proteus vulgaris HX 19) | MIC (Escherichia coli NIHJ) | SMILES | Minimum Inhibitory Concentration (Serratia No. 72) | Minimum Inhibitory Concentration [1] | Minimum Inhibitory Concentration [2] | Minimum Inhibitory Concentration [3] | Minimum Inhibitory Concentration [4] | Minimum Inhibitory Concentration [5] | Minimum Inhibitory Concentration (Proteus vulgaris HX 19) | Minimum Inhibitory Concentration (Escherichia coli NIHJ)
1 | 50 µg/mL (≈ 77 µM) | 0.78 µg/mL (≈ 1.2 µM) | 6.25 µg/mL (≈ 9.62 µM) | 6.25 µg/mL (≈ 9.62 µM) | 12.5 µg/mL (≈ 19.2 µM) | 6.25 µg/mL (≈ 9.62 µM) | 0.2 µg/mL (≈ 0.308 µM) | 3.13 µg/mL (≈ 4.82 µM) | Cn1nnnc1SCC1=C(C(=O)O)N2C(=O)C(NC(=O)C(NC(=O)c3cnc4cncnc4c3O)c3cccc(N)c3)C2SC1 (stereo not drawn) [Example 72] |  |  |  |  |  |  |  | 
2 |  |  |  |  |  |  |  |  | CC(=O)OCC1=C(C(=O)[O-])N2C(=O)C(NC(=O)C(NC(=O)c3cnc4nc(C)cnc4c3O)c3ccc(O)cc3)C2SC1.[Na+] (stereo not drawn) [Example 136] | 100 µg/mL | 0.78 µg/mL | 3.13 µg/mL | 6.25 µg/mL | 6.25 µg/mL | 6.25 µg/mL | 0.78 µg/mL | 3.13 µg/mL
3 | 25 µg/mL (≈ 37.8 µM) | 0.78 µg/mL (≈ 1.18 µM) | 1.56 µg/mL (≈ 2.36 µM) | 6.25 µg/mL (≈ 9.45 µM) | 6.25 µg/mL (≈ 9.45 µM) | 3.13 µg/mL (≈ 4.73 µM) | 0.1 µg/mL (≈ 0.151 µM) | 6.25 µg/mL (≈ 9.45 µM) | O=C(O)C1=C(CSc2ccc(O)nn2)CSC2C(NC(=O)C(NC(=O)c3cnc4cccnc4c3O)c3ccc(O)cc3)C(=O)N12 (stereo not drawn) [Example 170] |  |  |  |  |  |  |  | 
4 | 100 µg/mL (≈ 165 µM) | 0.78 µg/mL (≈ 1.28 µM) | 3.13 µg/mL (≈ 5.15 µM) | 6.25 µg/mL (≈ 10.3 µM) | 12.5 µg/mL (≈ 20.6 µM) | 6.25 µg/mL (≈ 10.3 µM) | 0.78 µg/mL (≈ 1.28 µM) | 6.25 µg/mL (≈ 10.3 µM) | CC(=O)OCC1=C(C(=O)O)N2C(=O)C(NC(=O)[C@H](NC(=O)c3cnc4nc(C)ccc4c3O)c3ccc(O)cc3)C2SC1 (stereo partly drawn) [Example 123] |  |  |  |  |  |  |  | 
5 | 100 µg/mL (≈ 163 µM) | 0.78 µg/mL (≈ 1.27 µM) | 6.25 µg/mL (≈ 10.2 µM) | 12.5 µg/mL (≈ 20.4 µM) | 25 µg/mL (≈ 40.8 µM) | 12.5 µg/mL (≈ 20.4 µM) | 0.78 µg/mL (≈ 1.27 µM) | 12.5 µg/mL (≈ 20.4 µM) | Cn1nnnc1SCC1=C(C(=O)O)N2C(=O)C(NC(=O)C(NC(=O)c3cccnc3O)c3ccc(CO)cc3)C2SC1 (stereo not drawn) [Example 112] |  |  |  |  |  |  |  | 
6 | 50 µg/mL (≈ 71.7 µM) | 0.78 µg/mL (≈ 1.12 µM) | 6.25 µg/mL (≈ 8.96 µM) | 12.5 µg/mL (≈ 17.9 µM) | 25 µg/mL (≈ 35.8 µM) | 6.25 µg/mL (≈ 8.96 µM) | 0.78 µg/mL (≈ 1.12 µM) | 12.5 µg/mL (≈ 17.9 µM) | CSc1ncc2c(O)c(C(=O)NC(C(=O)NC3C(=O)N4C(C(=O)O)=C(CSc5nnnn5C)CSC34)c3ccc(O)cc3)nnc2n1 (stereo not drawn) [Example 173] |  |  |  |  |  |  |  | 
7 | 50 µg/mL (≈ 83.7 µM) | 0.39 µg/mL (≈ 0.653 µM) | 6.25 µg/mL (≈ 10.5 µM) | 6.25 µg/mL (≈ 10.5 µM) | 12.5 µg/mL (≈ 20.9 µM) | 6.25 µg/mL (≈ 10.5 µM) | 0.1 µg/mL (≈ 0.167 µM) | 6.25 µg/mL (≈ 10.5 µM) | Cn1nnnc1SCC1=C(C(=O)O)N2C(=O)C(NC(=O)C(NC(=O)c3cnccc3O)c3cccc(N)c3)C2SC1 (stereo not drawn) [Example 57] |  |  |  |  |  |  |  | 
8 | 50 µg/mL (≈ 79.4 µM) | 0.78 µg/mL (≈ 1.24 µM) | 12.5 µg/mL (≈ 19.9 µM) | 12.5 µg/mL (≈ 19.9 µM) | 25 µg/mL (≈ 39.7 µM) | 12.5 µg/mL (≈ 19.9 µM) | 0.2 µg/mL (≈ 0.318 µM) | 12.5 µg/mL (≈ 19.9 µM) | Cc1nnc(SCC2=C(C(=O)O)N3C(=O)C(NC(=O)C(NC(=O)c4ccnnc4O)c4ccc(CO)cc4)C3SC2)s1 (stereo not drawn) [Example 93] |  |  |  |  |  |  |  | 
9 | 25 µg/mL (≈ 37 µM) | 1.56 µg/mL (≈ 2.31 µM) | 3.13 µg/mL (≈ 4.63 µM) | 6.25 µg/mL (≈ 9.25 µM) | 12.5 µg/mL (≈ 18.5 µM) | 6.25 µg/mL (≈ 9.25 µM) | 0.39 µg/mL (≈ 0.577 µM) | 3.13 µg/mL (≈ 4.63 µM) | O=C(O)C1=C(CSc2ccc(O)nn2)CSC2C(NC(=O)C(NC(=O)c3cnc4cccnc4c3O)c3ccc(CO)cc3)C(=O)N12 (stereo not drawn) [Example 102] |  |  |  |  |  |  |  | 
10 |  |  |  |  |  |  |  |  | COc1cc(C(NC(=O)c2cnc3cccnc3c2O)C(=O)NC2C(=O)N3C(C(=O)[O-])=C(COC(C)=O)CSC23)ccc1O.[Na+] (stereo not drawn) [Example 143] | 100 µg/mL | 3.13 µg/mL | 3.13 µg/mL | 12.5 µg/mL | 12.5 µg/mL | 6.25 µg/mL | 0.78 µg/mL | 6.25 µg/mL
11 | 12.5 µg/mL (≈ 17.2 µM) | 1.56 µg/mL (≈ 2.15 µM) | 1.56 µg/mL (≈ 2.15 µM) | 6.25 µg/mL (≈ 8.61 µM) | 3.13 µg/mL (≈ 4.31 µM) | 3.13 µg/mL (≈ 4.31 µM) | 0.39 µg/mL (≈ 0.537 µM) | 3.13 µg/mL (≈ 4.31 µM) | NC(=O)Nc1ccc([C@@H](NC(=O)c2cnc3cccnc3c2O)C(=O)N[C@@H]2C(=O)N3C(C(=O)O)=C(CSc4nnc(S)s4)CS[C@H]23)cc1 [Example 24] |  |  |  |  |  |  |  | 
12 | 12.5 µg/mL (≈ 18.3 µM) | 0.78 µg/mL (≈ 1.14 µM) | 1.56 µg/mL (≈ 2.29 µM) | 6.25 µg/mL (≈ 9.17 µM) | 6.25 µg/mL (≈ 9.17 µM) | 3.13 µg/mL (≈ 4.59 µM) | 0.2 µg/mL (≈ 0.293 µM) | 3.13 µg/mL (≈ 4.59 µM) | O=C(O)C1=C(CSc2nnc(CO)s2)CSC2C(NC(=O)[C@H](NC(=O)c3cnc4cccnc4c3O)c3ccc(O)cc3)C(=O)N12 (stereo partly drawn) [Example 150] |  |  |  |  |  |  |  | 
